Where two headings read alike, the source gives them in different places. Each block holds one compound with its values, some of them ahead of it.
What was measured:
[1] = Metabolic stability in vitro, rat liver microsomes (calculation of Fmax); format: in vitro ADME
Description: (§1) The metabolic stability of test compounds in vitro was determined by incubating them at 1 μM with a suspension liver microsomes in 100 mM phosphate buffer, pH7.4 (NaH2PO4×H2O+Na2HPO4×2H2O) at a protein concentration of 0.5 mg/mL and at 37° C. The reaction was activated by adding a co-factor mix containing 1.2 mg NADP, 3 IU glucose-6-phosphate dehydrogenase, 14.6 mg glucose-6-phosphate and 4.9 mg MgCl2 in phosphate buffer, pH 7.4. Organic solvent in the incubations was limited to <0.2% dimethylsulfoxide (DMSO) and <1% methanol. During incubation, the microsomal suspensions were continuously shaken and aliquots were taken at 2, 8, 16, 30, 45 and 60 min, to which equal volumes of cold methanol were immediately added. Samples were frozen at −20° C. over night, subsequently centrifuged for 15 minutes at 3000 rpm and the supernatant was analyzed with an Agilent 1200 HPLC-system with LCMS/MS detection.
(§2) The half-life of a test compound was determined from the concentration-time plot. From the half-life the intrinsic clearances were calculated. Together with the additional parameters liver blood flow, specific liver weight and microsomal protein content the hepatic in vivo blood clearance (CL) and the maximal oral bioavailability (Fmax) were calculated for the different species. The following parameter values were used: Liver blood flow—1.3 L/h/kg (human), 2.1 L/h/kg (dog), 4.2 L/h/kg (rat); specific liver weight—21 g/kg (human), 39 g/kg (dog), 32 g/kg (rat); microsomal protein content—40 mg/g.
(§3) With the described assay only phase-I metabolism of microsomes is reflected, e.g. typically oxidoreductive reactions by cytochrome P450 enzymes and flavin mono-oxygenases (FMO) and hydrolytic reactions by esterases (esters and amides).

[2] = Metabolic stability in vitro, human liver microsomes (calculation of Fmax); format: in vitro ADME; settings: for Human liver microsomes; Fmax [%]: 1 μM; for calculated maximal oral bioavailability (Fmax) at 1 μM: pH 7.4, determined by means of human liver microsomes, read-out: maximum oral bioavailability (Fmax) in human
Description: as §1, §2, §3

[3] = Solubility of compound A1 at 25° C. in different solvents; format: physicochemical
[4] = tested on: HeLa-MaTu-ADR, multidrug-resistant human cervical carcinoma cells; assay: Proliferation assay, HeLa-MaTu-ADR cells (crystal violet); format: cell-based; settings: read-out: IC50 determined in a HeLa-MaTu-ADR cell proliferation assay
Description: (§4) Cultivated tumor cells (MCF7, hormone dependent human mammary carcinoma cells, ATCC HTB22; NCI-H460, human non-small cell lung carcinoma cells, ATCC HTB-177; DU 145, hormone-independent human prostate carcinoma cells, ATCC HTB-81; HeLa-MaTu, human cervical carcinoma cells, EPO-GmbH, Berlin; HeLa-MaTu-ADR, multidrug-resistant human cervical carcinoma cells, EPO-GmbH, Berlin; HeLa human cervical tumor cells, ATCC CCL-2; B16F10 mouse melanoma cells, ATCC CRL-6475) were plated at a density of 5000 cells/well (MCF7, DU145, HeLa-MaTu-ADR), 3000 cells/well (NCI-H460, HeLa-MaTu, HeLa), or 1000 cells/well (B16F10) in a 96-well multititer plate in 200 μl of their respective growth medium supplemented 10% fetal calf serum. After 24 hours, the cells of one plate (zero-point plate) were stained with crystal violet (see below), while the medium of the other plates was replaced by fresh culture medium (200 μl), to which the test substances were added in various concentrations (0 μM, as well as in the range of 0.01-30 μM; the final concentration of the solvent dimethyl sulfoxide was 0.5%). The cells were incubated for 4 days in the presence of test substances. Cell proliferation was determined by staining the cells with crystal violet: the cells were fixed by adding 20 μl/measuring point of an 11% glutaric aldehyde solution for 15 minutes at room temperature. After three washing cycles of the fixed cells with water, the plates were dried at room temperature. The cells were stained by adding 100 μl/measuring point of a 0.1% crystal violet solution (pH 3.0). After three washing cycles of the stained cells with water, the plates were dried at room temperature. The dye was dissolved by adding 100 μl/measuring point of a 10% acetic acid solution. The extinction was determined by photometry at a wavelength of 595 nm. The change of cell number, in percent, was calculated by normalization of the measured values to the extinction values of the zero-point plate (=0%) and the extinction of the untreated (0 μm) cells (=100%). The IC50 values were determined by means of a 4 parameter fit.

[5] = tested on: HeLa human cervical tumor cells; assay: Proliferation assay, HeLa cells (crystal violet); format: cell-based
Description: as §4

[6] = Metabolic stability in vitro, dog liver microsomes (calculation of Fmax); format: in vitro ADME
Description: as §1, §2, §3

human kinase Mps-1 [7] = molecular target: T1, human kinase Mps-1 (Homo sapiens, UniProt P33981); assay: Mps-1 kinase assay (TR-FRET) with 10 μM ATP; format: biochemical
T1 construct: N-terminally GST-tagged human full length recombinant Mps-1 kinase; GST (N); purchased Invitrogen, Karslruhe, Germany PV4071
T1 sequence (P33981 1-857): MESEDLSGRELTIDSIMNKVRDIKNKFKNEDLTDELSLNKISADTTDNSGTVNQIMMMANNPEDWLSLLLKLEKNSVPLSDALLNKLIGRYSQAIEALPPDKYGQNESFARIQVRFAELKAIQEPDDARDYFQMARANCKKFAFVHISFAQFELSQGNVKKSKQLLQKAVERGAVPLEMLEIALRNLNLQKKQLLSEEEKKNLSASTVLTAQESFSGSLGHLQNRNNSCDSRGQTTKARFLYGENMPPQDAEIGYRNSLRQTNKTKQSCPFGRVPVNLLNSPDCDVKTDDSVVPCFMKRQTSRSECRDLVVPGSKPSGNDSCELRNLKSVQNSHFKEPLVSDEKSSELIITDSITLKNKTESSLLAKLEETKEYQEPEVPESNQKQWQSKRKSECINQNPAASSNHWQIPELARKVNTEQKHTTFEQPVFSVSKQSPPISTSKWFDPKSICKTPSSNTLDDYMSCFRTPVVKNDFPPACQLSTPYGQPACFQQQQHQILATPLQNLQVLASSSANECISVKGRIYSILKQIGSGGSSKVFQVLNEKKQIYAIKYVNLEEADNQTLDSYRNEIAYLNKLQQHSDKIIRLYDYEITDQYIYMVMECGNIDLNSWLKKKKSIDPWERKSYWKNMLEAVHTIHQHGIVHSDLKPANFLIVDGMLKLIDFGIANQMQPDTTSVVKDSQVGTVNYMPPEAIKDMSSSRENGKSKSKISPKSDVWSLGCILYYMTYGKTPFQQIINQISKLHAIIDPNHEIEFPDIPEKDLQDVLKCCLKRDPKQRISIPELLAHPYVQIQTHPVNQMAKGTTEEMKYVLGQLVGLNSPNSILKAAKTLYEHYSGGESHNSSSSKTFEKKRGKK

human kinase Mps-1 [8] = molecular target: T1, human kinase Mps-1; assay: Mps-1 kinase assay (TR-FRET) with 2 mM ATP; format: biochemical
[9] = comparison table with comparative examples
[10] = 96 h, HeLa cells, 4 days, read-out: Inhibition of cell proliferation, cell Line: HeLa IC50
[11] = HeLa, comparison table with comparative examples, read-out: Inhibition of cell proli-feration, cell line: HeLa, IC50
[12] = HeLa, read-out: IC50 in a HeLa cell proliferation assay
[13] = Mps-1 Inhibition, IC50 (Assay with 10 μM ATP), comparison table with comparative examples

SMILES: COc1cc(S(C)(=O)=O)ccc1Nc1nc2ccc(-c3ccc(NC(=O)[C@H](C)c4ccc(F)cc4)cc3)cn2n1 [Compound A1, (2R)-2-(4-fluorophenyl)-N-[4-(2-{[2-methoxy-4-(methylsulfonyl)phenyl]-amino}[1,2,4]triazolo[1,5-α]pyridin-6-yl)phenyl]propanamide]
- Rat liver microsomes; Fmax [%] [1, 9]: 92%
- Rat liver microsomes; Fmax [%] ([1]; rat liver microsomes, 1 μM): 92%
- Human liver microsomes; Fmax [%] [2]: 92%
- calculated maximal oral bioavailability (Fmax) at 1 μM [2]: > 60%
- dissolved amount in mg/100 mL solution ([3]; 0.1M HCl in water): <0.1 mg/100 mL
- dissolved amount in mg/100 mL solution ([3]; aqueous solution, acetate buffer pH 4.5): <0.1 mg/100 mL
- dissolved amount in mg/100 mL solution ([3]; aqueous solution, phopshate buffer pH 7): <0.1 mg/100 mL
- dissolved amount in mg/100 mL solution ([3]; aqueous solution, phopshate buffer pH 8): <0.1 mg/100 mL
- dissolved amount in mg/100 mL solution ([3]; solvent acetone): 1518.3 mg/100 mL
- dissolved amount in mg/100 mL solution ([3]; solvent acetonitrile): 350.2 mg/100 mL
- dissolved amount in mg/100 mL solution ([3]; solvent ethanol): 45.7 mg/100 mL
- dissolved amount in mg/100 mL solution ([3]; solvent water): <0.1 mg/100 mL
- IC50 [4]: < 10000 nM
- IC50 [5, 10]: < 400 nM
- IC50 [5, 11]: < 400 nM
- IC50 [5, 12]: < 400 nM
- Dog liver microsomes; Fmax [%] [6, 9]: 64%
- Dog liver microsomes; Fmax [%] ([6]; dog liver microsomes, 1 μM): 64%

SMILES: C[C@@H](C(=O)Nc1ccc(-c2ccc3nc(Nc4ccc(S(C)(=O)=O)cc4OCC(F)(F)F)nn3c2)cc1)c1ccc(F)cc1 [Compound A2, (2R)-2-(4-fluorophenyl)-N-[4-(2-{[4-(methylsulfonyl)-2-(2,2,2-trifluoro-ethoxy)phenyl]amino}[1,2,4]triazolo[1,5-α]pyridin-6-yl)phenyl]-propanamide]
- Rat liver microsomes; Fmax [%] [1, 9]: 93%
- Rat liver microsomes; Fmax [%] ([1]; rat liver microsomes, 1 μM): 93%
- Human liver microsomes; Fmax [%] [2]: >95%
- calculated maximal oral bioavailability (Fmax) at 1 μM [2]: > 60%
- IC50 (human kinase Mps-1 [7]; IC50 in an Mps-1 kinase assay with a concentration of 10 μM ATP): ≤ 1 nM
- IC50 (human kinase Mps-1 [7]; [13]): < 1 nM
- IC50 (human kinase Mps-1 [7]; Mps-1 Inhibition, IC50 in M (Assay with 10 μM ATP)): < 1 nM
- IC50 [4]: < 10000 nM
- IC50 (human kinase Mps-1 [8]; IC50 in an Mps-1 kinase assay with a concentration of 2 mM ATP): < 2 nM
- IC50 (human kinase Mps-1 [8]; Mps-1 Inhibition, IC50 in M (Assay with 2 mM ATP)): < 1 nM
- IC50 [5, 10]: < 200 nM
- IC50 [5, 11]: < 200 nM
- IC50 [5, 12]: < 400 nM
- Dog liver microsomes; Fmax [%] [6, 9]: 55%
- Dog liver microsomes; Fmax [%] ([6]; dog liver microsomes, 1 μM): 55%

SMILES: COc1cc(C(=O)N2CC(F)C2)ccc1Nc1nc2ccc(-c3ccc(NC(=O)[C@H](C)c4ccc(F)cc4)cc3)cn2n1 [Compound A3, (2R)-N-{4-[2-({4-[(3-fluoroazetidin-1-yl)carbonyl]-2-methoxyphenyl}amino)-[1,2,4]triazolo[1,5-α]pyridin-6-yl]phenyl}-2-(4-fluorophenyl)propanamide]
- Rat liver microsomes; Fmax [%] [1, 9]: 83%
- Rat liver microsomes; Fmax [%] ([1]; rat liver microsomes, 1 μM): 83%
- Human liver microsomes; Fmax [%] [2]: >95%
- calculated maximal oral bioavailability (Fmax) at 1 μM [2]: > 60%
- IC50 [4]: < 10000 nM
- Dog liver microsomes; Fmax [%] [6, 9]: 86%
- Dog liver microsomes; Fmax [%] ([6]; dog liver microsomes, 1 μM): 86%

SMILES: COc1cc(C(=O)N2CCOCC2)ccc1Nc1nc2ccc(-c3ccc(NC(=O)Cc4ccc(F)cc4)cc3)cn2n1 [reference compound]
- Rat liver microsomes; Fmax [%] [1, 9]: 48%

SMILES: CCOc1cc(S(C)(=O)=O)ccc1Nc1nc2ccc(-c3ccc(C(=O)NCc4ccc(F)cc4)c(C)c3)cn2n1 [reference compound]
- Dog liver microsomes; Fmax [%] [6, 9]: 12%

SMILES: COc1cc(C(=O)NCC(F)(F)F)ccc1Nc1nc2ccc(-c3ccc(NC(=O)Cc4ccc(F)cc4)cc3)cn2n1 [reference compound]
- Dog liver microsomes; Fmax [%] [6, 9]: 40%

SMILES: COc1cc(N2CCOC2=O)ccc1Nc1nc2ccc(-c3ccc(NC(=O)Cc4ccc(F)cc4)cc3)cn2n1 [reference compound]
- Dog liver microsomes; Fmax [%] [6, 9]: 17%

SMILES: COc1cc(S(C)(=O)=O)ccc1Nc1nc2ccc(-c3ccc(NC(=O)Cc4ccc(F)cc4)cc3)cn2n1 [reference compound]
- Dog liver microsomes; Fmax [%] [6, 9]: 10%

SMILES: CS(=O)(=O)c1ccc(Nc2nc3ccc(-c4ccc(NC(=O)Cc5ccc(F)cc5)cc4)cn3n2)c(OCC(F)(F)F)c1 [reference compound]
- Dog liver microsomes; Fmax [%] [6, 9]: 25%

The remaining lines, values ahead:

- Dog liver microsomes; Fmax [%] [6, 9]: 15%
SMILES: N#Cc1c(F)cccc1Nc1nc2ccc(-c3ccc(NC(=O)Cc4ccc(F)cc4)cc3)cn2n1 [reference compound]

- Rat liver microsomes; Fmax [%] [1, 9]: 40%
SMILES: COc1ccccc1Nc1nc2ccc(-c3ccc(NC(=O)Cc4ccccc4)cc3)cn2n1 [reference compound]

- Rat liver microsomes; Fmax [%] [1, 9]: 40%
SMILES: N#Cc1ccccc1Nc1nc2ccc(-c3ccc(NC(=O)Cc4ccc(F)cc4)cc3)cn2n1 [reference compound]

- Rat liver microsomes; Fmax [%] [1, 9]: 27%
SMILES: N#Cc1ccccc1Nc1nc2ccc(-c3ccc(NC(=O)C(F)(F)c4ccccc4)cc3)cn2n1 [reference compound]

- Rat liver microsomes; Fmax [%] [1, 9]: 26%
SMILES: N#Cc1ccccc1Nc1nc2ccc(-c3ccc(NC(=O)C(F)c4ccccc4)cc3)cn2n1 (stereo not shown) [reference compound]

- IC50 [5, 11]: 1500 nM
SMILES: N#Cc1ccccc1Nc1nc2cnc(-c3ccc(NC(=O)Cc4ccc(F)cc4)cc3)cn2n1 [reference compound]

- IC50 (human kinase Mps-1 [7]; [13]): 11 nM
- IC50 [5, 11]: 1400 nM
SMILES: N#Cc1ccccc1Nc1nc2ccc(-c3ccc(NC(=O)C4(c5ccccc5)CC4)cc3)cn2n1 [reference compound]

- IC50 (human kinase Mps-1 [7]; [13]): 13 nM
SMILES: NC(C(=O)Nc1ccc(-c2ccc3nc(Nc4ccccc4C(F)(F)F)nn3c2)cc1)c1ccccc1 (stereo not shown) [reference compound]
